Structures are written as SMILES.

The target of data set [1] is T1, UGT1A9 (Homo sapiens, UniProt O60656).
T1 sequence (O60656 26-530): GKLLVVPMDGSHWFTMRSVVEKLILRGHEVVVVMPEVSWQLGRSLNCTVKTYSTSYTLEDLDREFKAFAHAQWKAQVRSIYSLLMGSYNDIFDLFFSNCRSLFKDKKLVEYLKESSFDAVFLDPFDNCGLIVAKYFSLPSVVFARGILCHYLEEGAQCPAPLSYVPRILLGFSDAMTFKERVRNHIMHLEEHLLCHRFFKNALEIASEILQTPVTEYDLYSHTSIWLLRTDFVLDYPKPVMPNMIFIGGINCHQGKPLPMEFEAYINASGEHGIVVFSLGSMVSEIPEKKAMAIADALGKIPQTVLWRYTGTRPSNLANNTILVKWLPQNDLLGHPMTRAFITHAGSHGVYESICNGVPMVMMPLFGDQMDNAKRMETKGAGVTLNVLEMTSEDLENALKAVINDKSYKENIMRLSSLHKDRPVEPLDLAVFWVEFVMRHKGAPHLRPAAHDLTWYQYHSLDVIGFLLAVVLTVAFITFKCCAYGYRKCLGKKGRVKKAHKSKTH
As to the kind of experiment: Effect of Ko143 and MK571 on fraxetin-O-glucuronidation activity of UGT1A9. As to conditions: Ko143 20 μM. As for the experimental part:
(§1) The incubation system was slightly modified on the basis of a previously published article ([Qin et al., 2018a]). […] After preincubation at 37°C for 5 min, UDPGA (3.5 mM) was added to the reaction system, and the mixture was incubated for another 30 min. These reactions were terminated by the addition of an equal volume of ice-cold acetonitrile. The mixed samples were centrifuged at 13800 × g for 10 min, and the supernatant was analyzed by ultra-high-performance liquid chromatography (UHPLC). All the experiments were conducted in triplicate.
(§2) Other detailed operations were the same as described above.

The target of another data set is T2, HeLa1A9 cell lysate (Homo sapiens, UniProt O60656).
T2 sequence (O60656 26-530): T1 sequence (O60656 26-530)
As to the kind of experiment: Effect of Ko143 and MK571 on fraxetin-O-glucuronidation activity of HeLa1A9 cell lysate. As to conditions: Ko143 20 μM. The data set is classed as biochemical. As for the experimental part: as §1, §2

Data set [2] addresses T1, UGT1A9. As to the kind of experiment: Inhibition of fraxetin-O-glucuronide formation by selective UGT1A9 inhibitors. The data set is classed as biochemical. As to conditions: fraxetin 4 and 20 μM; magnolol 1 μM, niflumic acid 10 μM, androsterone 10 μM. Details: purchased Corning Biosciences. As for the experimental part: as §1, §2
Data set [3] deals with T1, UGT1A9. As for the experimental part:
as §1
The enzyme kinetic parameters were obtained by fitting appropriate kinetic models to the experimental data in GraphPad Prism V5 software (San Diego, CA, United States). The best model was selected based on visual inspection of the Eadie–Hofstee plots ([Qin et al., 2018b]). In brief, if the Eadie–Hofstee plot was linear, formation rates (V) of glucuronides at different substrate concentrations (C) were fitted to the standard equations (1): […]
Where Km is the Michaelis–Menten constant, and Vmax is the maximum rate of glucuronidation. The intrinsic clearance (CLint) was computed as Vmax/Km.

In the next data set the test system is HeLa1A9 cells. Briefly: Glucuronide excretion experiments in HeLa1A9 cells. As to conditions: fraxetin 5, 10 and 20 μM; HeLa1A9 cells. The format is cell-based, human. As for the experimental part:
The HeLa1A9 cells were pretreated and incubated with fraxetin solutions as reported previously ([Jiang et al., 2011]). Before assays, the HeLa1A9 cells were washed twice with prewarmed (37°C) Hank’s balanced salt solution (HBSS; pH = 7.4). […] At each time point (30, 60, 90, and 120 min), 200 μL of the culture supernatant from each well was collected as samples, and an equal volume of a loading media was used to replenish each well. Next, the collected samples were each mixed with 100 μL ice-cold acetonitrile. The supernatants were subjected to UHPLC analysis after centrifugation (10 min at 13800 × g).
(§3) In addition, the excretion rate of intracellular glucuronides was calculated using Equ. 2. Fraction metabolized or the fmet value was defined as the fraction of a dose metabolized based on Equ. 3. The fmet value was regarded as the more appropriate parameter to reflect the extent of drug metabolism in intact cells in the presence of a transporter–enzyme interplay.
(§4) (2) Excretion rate=VdC(excretedglucuronide)/dt
(§5) where V is the volume of the incubation medium, C is the excreted cumulative concentration of glucuronides, and t denotes the incubation time. Here, dC(excreted glucuronide)/dt describes the changes in glucuronide levels with time.

The target of another data set is T3, MRP3 (Homo sapiens, UniProt O15438).
T3 construct: BCRP, MRP1, MRP3, and MRP4 were detected in both wild-type HeLa and HeLa1A9 cells; endogenous in cells
T3 sequence (O15438 whole entry): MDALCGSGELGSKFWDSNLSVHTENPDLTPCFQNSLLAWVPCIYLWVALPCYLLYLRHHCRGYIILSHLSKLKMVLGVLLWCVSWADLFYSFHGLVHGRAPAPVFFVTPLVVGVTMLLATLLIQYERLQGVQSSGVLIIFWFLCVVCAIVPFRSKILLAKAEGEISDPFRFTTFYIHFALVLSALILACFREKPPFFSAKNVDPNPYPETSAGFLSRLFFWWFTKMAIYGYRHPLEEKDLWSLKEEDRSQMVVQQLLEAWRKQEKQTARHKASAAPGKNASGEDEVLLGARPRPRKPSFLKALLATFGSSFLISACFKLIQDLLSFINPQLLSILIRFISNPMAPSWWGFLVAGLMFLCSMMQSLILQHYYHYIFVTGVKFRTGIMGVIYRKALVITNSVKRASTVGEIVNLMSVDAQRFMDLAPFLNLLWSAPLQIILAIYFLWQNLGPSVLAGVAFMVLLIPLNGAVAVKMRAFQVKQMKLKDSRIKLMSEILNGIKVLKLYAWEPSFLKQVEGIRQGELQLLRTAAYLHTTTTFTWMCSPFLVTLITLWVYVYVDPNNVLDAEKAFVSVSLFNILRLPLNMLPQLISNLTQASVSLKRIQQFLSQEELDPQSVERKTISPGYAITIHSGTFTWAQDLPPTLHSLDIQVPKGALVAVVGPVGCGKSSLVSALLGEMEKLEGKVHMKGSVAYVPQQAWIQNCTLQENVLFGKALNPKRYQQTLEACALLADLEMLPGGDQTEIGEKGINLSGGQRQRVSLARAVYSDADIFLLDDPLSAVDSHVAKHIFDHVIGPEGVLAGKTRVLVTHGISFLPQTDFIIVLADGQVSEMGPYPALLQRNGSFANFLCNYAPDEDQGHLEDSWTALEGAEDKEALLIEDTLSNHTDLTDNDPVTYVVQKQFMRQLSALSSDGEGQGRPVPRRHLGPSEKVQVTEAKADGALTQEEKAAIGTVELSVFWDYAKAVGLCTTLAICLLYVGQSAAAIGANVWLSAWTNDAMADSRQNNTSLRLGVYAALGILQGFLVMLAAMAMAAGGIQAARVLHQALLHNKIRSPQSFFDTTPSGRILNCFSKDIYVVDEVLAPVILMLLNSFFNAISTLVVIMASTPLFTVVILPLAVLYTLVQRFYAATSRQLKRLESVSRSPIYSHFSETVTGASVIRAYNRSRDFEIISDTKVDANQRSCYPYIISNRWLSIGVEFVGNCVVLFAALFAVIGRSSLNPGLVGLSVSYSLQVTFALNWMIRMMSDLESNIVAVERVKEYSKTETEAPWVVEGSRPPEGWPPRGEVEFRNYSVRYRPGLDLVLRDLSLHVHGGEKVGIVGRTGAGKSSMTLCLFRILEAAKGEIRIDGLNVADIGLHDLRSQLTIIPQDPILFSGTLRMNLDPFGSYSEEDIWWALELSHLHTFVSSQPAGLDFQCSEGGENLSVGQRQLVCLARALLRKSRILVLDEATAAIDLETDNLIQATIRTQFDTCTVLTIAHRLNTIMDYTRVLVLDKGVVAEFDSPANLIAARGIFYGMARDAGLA
As to the kind of experiment: shRNA-mediated partial silencing of MRP3 in HeLa1A9 cells, glucuronide excretion. The format is cell-based. The conditions noted are these: fraxetin 10 μM. As for the experimental part: (§6) The HeLa1A9 cells were pretreated and incubated with fraxetin solutions as reported previously ([Jiang et al., 2011]). Before assays, the HeLa1A9 cells were washed twice with prewarmed (37°C) Hank’s balanced salt solution (HBSS; pH = 7.4). After that, fraxetin (10 μM) dissolved in 2 mL of HBSS was incubated with the HeLa1A9 cells. At each time point (30, 60, 90, and 120 min), 200 μL of the culture supernatant from each well was collected as samples, and an equal volume of a loading media was used to replenish each well. Next, the collected samples were each mixed with 100 μL ice-cold acetonitrile. The supernatants were subjected to UHPLC analysis after centrifugation (10 min at 13800 × g).
(§7) In glucuronide excretion assays, biological inhibition mainly including shRNA-mediated partial silencing of BCRP and MRPs in HeLa cells was usually performed to evaluate the role of each efflux transporter ([Quan et al., 2015]; [Sun et al., 2015]; [Qin et al., 2018a]). Established shRNA_BCRP, shRNA_MRP1, shRNA_MRP3, and shRNA_MRP4 plasmids were […] transfected into HeLa1A9 cells to develop the stably shRNA-transfected cell lines, named HeLa1A9-BCRP-shRNA cells, HeLa1A9-MRP1-shRNA, HeLa1A9-MRP3-shRNA, and HeLa1A9-MRP4-shRNA cells, respectively. After transfection for 2 days, these engineered HeLa1A9 cells were subjected to fraxetin-O-glucuronide excretion experiments. The control scrambled shRNA served as a negative control.
as §3, §4
(§8) (3) fmet=excreted glucuronide+intracellular glucuronide/dosed aglycone
as §5

The next data set has as its target T4, MRP4 (Homo sapiens, UniProt O15439).
T4 construct: BCRP, MRP1, MRP3, and MRP4 were detected in both wild-type HeLa and HeLa1A9 cells; endogenous in cells
T4 sequence (O15439 1-1325): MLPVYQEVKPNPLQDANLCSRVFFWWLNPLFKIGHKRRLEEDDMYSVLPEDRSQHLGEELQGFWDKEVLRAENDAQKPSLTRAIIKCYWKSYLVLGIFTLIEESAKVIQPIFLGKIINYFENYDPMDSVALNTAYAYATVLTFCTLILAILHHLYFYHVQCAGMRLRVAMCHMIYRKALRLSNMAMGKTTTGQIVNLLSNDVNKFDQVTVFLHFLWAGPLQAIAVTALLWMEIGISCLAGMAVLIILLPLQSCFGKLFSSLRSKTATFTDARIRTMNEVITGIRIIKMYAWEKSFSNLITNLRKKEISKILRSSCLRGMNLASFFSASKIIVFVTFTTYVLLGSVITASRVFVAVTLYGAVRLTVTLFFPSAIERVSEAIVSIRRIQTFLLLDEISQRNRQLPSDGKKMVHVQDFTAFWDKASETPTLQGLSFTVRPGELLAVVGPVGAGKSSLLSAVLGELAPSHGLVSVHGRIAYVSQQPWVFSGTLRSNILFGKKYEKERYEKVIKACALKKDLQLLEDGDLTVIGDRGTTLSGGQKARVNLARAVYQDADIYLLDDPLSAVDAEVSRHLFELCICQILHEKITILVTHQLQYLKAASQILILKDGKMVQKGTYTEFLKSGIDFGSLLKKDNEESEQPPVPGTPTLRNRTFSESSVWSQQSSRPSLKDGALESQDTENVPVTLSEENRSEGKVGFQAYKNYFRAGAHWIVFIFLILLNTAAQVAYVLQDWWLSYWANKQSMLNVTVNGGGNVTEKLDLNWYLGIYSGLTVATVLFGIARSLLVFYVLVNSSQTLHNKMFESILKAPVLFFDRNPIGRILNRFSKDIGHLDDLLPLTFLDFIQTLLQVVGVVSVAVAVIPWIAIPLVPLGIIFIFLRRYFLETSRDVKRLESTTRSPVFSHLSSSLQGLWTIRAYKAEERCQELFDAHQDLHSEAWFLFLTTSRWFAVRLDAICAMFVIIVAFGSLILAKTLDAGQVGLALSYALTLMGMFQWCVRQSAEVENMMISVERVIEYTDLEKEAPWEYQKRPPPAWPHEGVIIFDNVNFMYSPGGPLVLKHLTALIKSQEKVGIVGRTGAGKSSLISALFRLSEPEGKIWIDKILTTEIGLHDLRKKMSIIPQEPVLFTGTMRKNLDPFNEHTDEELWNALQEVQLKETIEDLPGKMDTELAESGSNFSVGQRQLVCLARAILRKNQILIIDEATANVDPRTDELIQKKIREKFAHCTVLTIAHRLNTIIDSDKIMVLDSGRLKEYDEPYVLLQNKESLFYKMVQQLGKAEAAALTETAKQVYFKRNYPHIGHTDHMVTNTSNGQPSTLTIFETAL
As to the kind of experiment: shRNA-mediated partial silencing of MRP4 in HeLa1A9 cells, glucuronide excretion. The data set is classed as cell-based. The conditions noted are these: fraxetin 10 μM. As for the experimental part: as §6, §7, §3, §4, §8, §5

On to `COc1ccc2c3c([nH]c2c1)[C@H](CC(C)C)N1C(=O)[C@H](CCC(=O)OC(C)(C)C)NC(=O)[C@@H]1C3` [Ko143], for which, on UGT1A9 [1], the “inhibition of fraxetin-O-glucuronidation, G1” value amounted to 41.5% and the “inhibition of fraxetin-O-glucuronidation, G2” value was found to be 24.9%. On HeLa1A9 cell lysate, the “inhibition of fraxetin-O-glucuronidation, G1” value was 20.4% and the “inhibition of fraxetin-O-glucuronidation, G2” value stood at 29.3%.
Take `O=C(O)c1cccnc1Nc1cccc(C(F)(F)F)c1` [niflumic acid]: the “effect on formation of G1 and G2” value on UGT1A9 [2] is on record as “significantly inhibited”.
Usually Km stands for the substrate concentration at which the rate is half of its maximum. `COc1cc2ccc(=O)oc2c(O)c1O[C@@H]1O[C@H](C(=O)O)[C@@H](O)[C@H](O)[C@H]1O` [G2, fraxetin-7-O-glucuronide]: on UGT1A9 [3], the Michaelis constant (Km) lay within 8 to 16 µM. Besides, the “excretion with elevation of the fraxetin concentration” value in the data set with HeLa1A9 cells is recorded as “markedly increased”. For the same molecule, at MRP3 (MRP3 knockdown), the “decrease in fraction metabolized (fmet; overall cellular glucuronidation)” value is listed as 18.6% and the “reduction in excretion rate” value turned out to be 21.1%. At MRP3 (MRP3 knockdown, HeLa1A9 cells), the “reduction in excreted glucuronide” value is on record as 15.1–31.9%. At MRP3 (MRP3 silencing), the “elevation of intracellular glucuronide level” value is listed as 45.4%. Besides, at MRP4, the “decrease in fraction metabolized (fmet)” value was 23.1%, the “elevation of intracellular glucuronide” value was found to be 52.4% and the “reduction in excretion rate” value is 32.3%. The “decreased excretion of glucuronide” value on MRP4 (HeLa1A9 cells) was 33.0–42.4%.
`C=CCc1ccc(O)c(-c2cc(CC=C)ccc2O)c1` [magnolol]: the “effect on formation of G1 and G2” value at UGT1A9 [2] is “significantly inhibited”.

The values are drawn from PMC6515931, “The Efflux Mechanism of Fraxetin-O-Glucuronides in UGT1A9-Transfected HeLa Cells: Identification of Multidrug Resistance-Associated Proteins 3 and 4 (MRP3/4) as the Important Contributors” (Frontiers in Pharmacology, 2019).
